Like-named read-outs stand apart in the source and are kept apart here. Marks after values point to notes of the source that are not given here.
Key:
[1] = Hygroscopic properties of drugs and excipients (saturation limits, i coefficients, hygroscopic parameter); type: physicochemical; conditions: for Saturated mass fraction (mfsat): mass fraction that can be dissolved in liquid water at 25° C.; for Predicted van't Hoff factor (i): measured in this study, best fit of Eq. (15) to water activity data; for Saturated mole fraction (χsat): mole fraction that can be dissolved in liquid water at 25° C.
Experimental: It is noted that Eq. (15) has a form similar to Raoult's law and is valid for materials that may (i>1) or may not (i=1) dissociate upon dissolution. Specifically, Raoult's law provides a linear expression to describe activity coefficients at low solute concentrations, as presented by Finlay (2001). […] Furthermore, values of the i coefficients in this study are determined based on best fits to experimental data over a range of concentrations. Therefore, the application of Eq. (15) can be viewed as a physically based expression for fitting the experimental data. Finally, high accuracy is required at dilute concentrations, which have the largest impact on the final size achieved by the hygroscopic aerosol.
Experimental measurements were made in this study to determine the water activity coefficients of AS, CA, and PG. Activity coefficients for NaCl and MN were determined from the studies of Cinkotai (1971) and Ninni (2000), respectively. […] In order to represent the hygroscopic effect of molecular dissociation with a single coefficient, curve fits to the experimental data were based on Eq. (15) for a single component solution. The optimal value of i providing the best fit to the experimental data was calculated using a minimization routine. […] This limit was used to ensure accuracy of the i-values for dilute droplets, which is needed to ensure accurate estimates of final droplet size.
[formula] where m and M represent the mass (kg) and molar mass (kg/kmol) of the solute (s) and water (w). […] Based on Eq. (15), is directly impacts the activity coefficient and ρs influences the mass term in the mole fraction calculation (Eq. 17). […] This effect of initial drug or excipient loading can be taken into account as a function of the initial solute volume fraction (vfs). The resulting growth coefficient (GC1) for a single component droplet is then

[2] = cited from earlier work; for Predicted van't Hoff factor (i): Eq. (15) fit based on Ninni et al. (2000) measurements (MN) or Cinkotai (1971) correlations (NaCl)
[3] = In vitro growth system for validation of the numerical model (CAG, growth zone, MOUDI); type: physicochemical
Experimental: Submicrometer drug and drug-hygroscopic excipient particles were formed using a capillary aerosol generator (CAG). The capillary aerosol generation system is described and considered in detail by the previous studies of Hindle et al. (1998) and Longest et al. (2007). In the current study, the formulation was a mixture of 50% water and 50% ethanol by weight to dissolve both hydrophilic and hydrophobic drugs. This solution was heated and pumped through the CAG at a flow rate of 10 mg/s to form the spray aerosol. Single drug and drug-hygroscopic excipient particles were created experimentally for albuterol sulfate (AS), budesonide (BD), and sodium chloride (NaCl). Specifically, single component drug particles were formed using a 0.2% w/v AS solution and a 0.15% w/v BD solution, respectively. Combination drug-hygroscopic excipient particles were generated using a 0.1% AS-0.1% NaCl w/v solution and a 0.1% BD-0.1% NaCl w/v solution, respectively. The spray aerosol was allowed to dry into solid particles by passage through a 52 cm length of dry tubing (FIG. 3). Initial particle size was then assessed by connecting the tubing to a 10 stage MOUDI (MSP Corp, Shoreview, Minn.). To produce growth, the aerosol stream was combined with humidified air at T=25° C. and RH=99% sampled from an environmental cabinet. […] This length was selected to provide a residence time of approximately 0.2 s, which is consistent with the time required for an orally inhaled pharmaceutical aerosol to reach the main bifurcation of the lungs under standard inhalation conditions. Walls of the growth section were pre-wetted to simulate the wet walled conditions of the respiratory tract, which stimulates aerosol growth. The growth tube was not heated and was exposed to 24° C. room temperature air for this initial validation experiment. After exiting the growth tube, the aerosol was passed into the 10 stage MOUDI for size characterization.
In separate experiments, the temperature and humidity of the humidified air and the temperature of the aerosol mixture stream at the inlet to the condensational growth tube were measured. […]
The initial aerodynamic particle size distribution of the aerosol exiting the drying section of tubing was determined using the 10 stage MOUDI operated at 30±2 L/min, which allowed size fractionation between 50 nm and 10 μm. […] The final aerodynamic particle size distribution of the aerosol exiting the condensational growth tube was also determined using the MOUDI operated at 30±2 L/min. […] The mass of drug and excipient on each impaction plate was determined and used to calculate both the initial and final aerodynamic particle size distributions of the drug and combination aerosols. […]

[4] = Generation of submicrometer aerosol with small particle aerosol generator (SPAG) and drying gas; type: physicochemical; conditions: SPAG nebulized and dried; 560 nm: 0.1% solution, 7.5 and 3 L/min; 900 nm: 0.5% solution, 7 and 3 L/min
Experimental: With LFT, a heated air source is not present for aerosol size reduction, as with HFT. However, medical gases used with LFT (oxygen and helium-oxygen) are typically dry. A study was conducted to evaluate if dry medical-grade gas could be used to produce a submicrometer aerosol from a commercially available nebulizer. A small particle aerosol generator (SPAG) was employed, which functions as a jet nebulizer with an additional relatively large and inefficient drying chamber. […] Specifically, albuterol sulfate solutions were nebulized and dried using a series of nebulizer airflow conditions to produce aerosols with initial mean MMADs (and standard deviations) of 150 (5.5) nm, 560 (11.4) nm, and 900 (32.7) nm (FIG. 11). The 560 nm aerosol was generated using a 0.1% albuterol sulfate in water solution with a nebulizer gas flow rate of 7.5 L/min and a drying gas flow rate of 3 L/min. […]
Nano-sized aqueous-based drug aerosols were generated using a small particle aerosol generator (SPAG-6000, ICN Pharmaceuticals, Costa Mesa, Calif.), and were delivered through a nasal model geometry airway in the presence and absence of ECG conditions. Albuterol sulfate solutions were nebulized using a series of nebulizer airflow conditions to produce aerosols with initial mean (SD) measured size of 900 (32.7) nm. […]

[5] = Hygroscopic growth tube, CAG nanoparticle aerosols sized by cascade impactor; type: physicochemical; conditions: Table 2
Experimental: Budesonide nanoparticle aerosols were generated using the Capillary Aerosol Generator (CAG). This technology represents a generic means of producing engineered pharmaceutical nanosized particles suitable for inhalation. The CAG utilizes controlled heating of a liquid formulation passing through a capillary tube to produce nanosized dry particles exiting the capillary nozzle.
Hygroscopic growth of these nanoparticle aerosols was evaluated by passing the aerosol through a growth tube. Briefly, following nanoparticle generation the aerosols were drawn through the 29 cm hygroscopic growth tube at a flow rate of 30 L/min. The tube was held at 37° C. and 99% relative humidity (RH) to simulate expected lung conditions. The growth tube was approximately 29 cm, which is consistent with the distance from the mouth inlet to the main bronchi of an adult. Following passage through the tubular geometry the aerosols were delivered to the 10-stage MOUDI or Andersen Cascade Impactor (ACI; Graseby-Andersen Inc, Smyrna, Ga.) for particle sizing. Both the tubular geometry and the cascade impactor were placed in an environmental chamber (Espec Environmental Cabinet, Hudsonville, Mich.) to maintain constant temperature and humidity conditions. The ACI was employed following hygroscopic growth when it was expected that the aerosols produced would be in the 1-3 μm size range. For these studies, the final aerodynamic particle size distribution of the aerosol exiting the hygroscopic growth tube was determined at 28±2 L/min, and humidified co-flow air (99% RH) was supplied to the impactor. […] The mass of drug on each impaction plate was determined and used to calculate both the initial and final aerodynamic particle size distributions of the drug aerosols. The growth ratios were calculated by comparing the final size with the initial size of the nanoparticle as a measure of hygroscopic size increase.
Hygroscopic growth of these nanoparticle aerosols was evaluated by passing the aerosol through a growth tube as described in Example 1. […]

Compound | Hygroscopic parameter isρs/Ms [1] | Saturated mass fraction (mfsat) [1] | Predicted van't Hoff factor (i) [1] | Saturated mole fraction (χsat) [1] | Predicted van't Hoff factor (i) [2] | Predicted van't Hoff factor (i) ([2]; listed as NaCl) | i coefficient, Raoult's law form of the equation ([2]; NaCl data of Cinkotai (1971), through mfs = 0.3) | Initial MMAD ([3]; at inlet to growth zone, SD in parentheses, minimum 4 trials) | Initial dgeo ([3]; calculated from MMAD and dry particle density) | Final dgeo ([3]; outlet of 26 cm growth tube, about 0.2 s, 99% RH, assumed equal to the MMAD) | d/do ([3]; ratio of final to initial geometric diameters) | initial mean MMAD (standard deviation) [4] | Initial MMAD ([5]; CAG-generated albuterol nanoparticles before growth tube, n = 3-4) | Final MMAD (99% RH) ([5]; after 29 cm growth tube, 37° C., 99% RH) | Growth ratio ([5]; final size compared with initial size, 29 cm growth tube, 99% RH)
O=C(O)CC(O)(CC(=O)O)C(=O)O [Citric acid (CA), Citric acid] | 16.5 kmol/m^3 | 0.57 | 1.9^d | 0.11 |  |  |  |  |  |  |  |  |  |  | 
OC[C@@H](O)[C@@H](O)[C@H](O)[C@H](O)CO [Mannitol (MN), Mannitol] | 8.2 kmol/m^3 | 0.15 |  | 0.018 | 1.0^e |  |  |  |  |  |  |  |  |  | 
[Cl-].[Na+] [Sodium chloride (NaCl), Sodium chloride] | 77.9 kmol/m^3 | 0.265 |  |  | 2.1^f | 2.1 | 1.9 |  |  |  |  |  |  |  | 
Albuterol sulfate [Albuterol sulfate (100%)] | 4.9 kmol/m^3 | 0.28 | 2.1 | 0.012 |  |  |  | 0.38 (0.01)^a μm | 0.33 μm | 0.51 (0.04) μm | 1.55 (0.12) | 900 (32.7) nm | 380 nm | 510 nm | 1.35
CC(O)CO (centres unmarked) [Propylene glycol (PG), Propylene glycol] | 13.6 kmol/m^3 | 1.00 | 1.0^d | 1.00 |  |  |  |  |  |  |  |  |  |  | 

From patent publication US9433588B2, “Delivery of submicrometer and nanometer aerosols to the lungs using hygroscopic excipients or dual stream nasal delivery” (Virginia Commonwealth Univeristy, priority 2009, dated 2016)
